Test results reported in patent US20140044779A1, “Liquid Carrier for Oral Delivery of a Pharmacologically Active Agent” (LIPIDOR AB, priority 2011, published 2014).

Assay: Storage stability of dispersions of solid powderous agents in vehicles
Type: physicochemical
Details: as little as
Source text: Depending on the chemical and physical nature of the solid and its particle size, a minimum amount of the solid is required to form the stable suspension of the invention. For a given substance of given physical and chemical nature as well of particle size, this minimum amount can be easily determined by experimentation, which is within the reach of a person skilled in the art. With some substances, such as hydrocortisone, stable suspensions are obtained by incorporating as little as 3% by weight of the substance into the fluid carrier. A preferred average particle size (with 50% or more of the particles being below average) is one of less than 550 μm or 250 μm, in particular of less than 100 μm or 20 μm, most preferred of less than 5 μm or 2 μm. The stabilizing effect of the particulate solid of the invention can also be obtained by a mixture of particulate substances, such as a particulate pharmacologically or cosmetically active agent, for instance hydrocortisone, and a particulate pharmaceutically or cosmetically acceptable excipient, such as microcrystalline cellulose. The powderous agents used are practically insoluble in the vehicles.

## C[C@]12CCC(=O)C=C1CC[C@@H]1[C@@H]2[C@@H](O)C[C@@]2(C)[C@H]1CC[C@]2(O)C(=O)CO [hydrocortisone, Hydrocortisone]
  amount of substance incorporated into the fluid carrier at which stable suspensions are obtained: 3 % by weight
